Measured values from ChEMBL document CHEMBL1148259, “2,4-Bis(octadecanoylamino)benzenesulfonic acid sodium salt as a novel scavenger receptor inhibitor with low molecular weight” (Bioorg Med Chem Lett, 2004).
Blank lines part the entries; values can stand above or below the molecule they belong to.

What was measured:
[1] = molecular target: T1, Macrophage scavenger receptor types I and II (Mus musculus) (UniProt P30204); assay: Percent inhibition of DiI-acetyl-LDL binding to scavenger receptor of mouse peritoneal macrophages at 100 uM; format: functional
T1 sequence (whole entry): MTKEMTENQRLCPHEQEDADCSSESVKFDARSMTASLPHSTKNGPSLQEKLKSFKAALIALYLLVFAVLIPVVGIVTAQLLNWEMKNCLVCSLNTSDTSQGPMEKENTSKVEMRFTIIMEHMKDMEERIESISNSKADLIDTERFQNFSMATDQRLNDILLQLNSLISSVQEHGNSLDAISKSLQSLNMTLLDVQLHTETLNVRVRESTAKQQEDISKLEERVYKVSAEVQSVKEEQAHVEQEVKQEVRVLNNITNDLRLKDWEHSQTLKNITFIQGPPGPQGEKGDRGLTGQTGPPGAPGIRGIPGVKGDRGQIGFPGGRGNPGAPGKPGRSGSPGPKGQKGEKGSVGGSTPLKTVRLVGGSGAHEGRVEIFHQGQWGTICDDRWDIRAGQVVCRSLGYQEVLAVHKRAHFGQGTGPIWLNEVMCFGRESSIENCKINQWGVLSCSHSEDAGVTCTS

[2] = molecular target: T1, Macrophage scavenger receptor types I and II (Mus musculus); assay: Activity against acetyl-LDLbinding to scavenger receptor as percent inhibition of incorporation of DiI-acetyl-LDL into mouse peritoneal macrophages at 30 uM
[3] = molecular target: T1, Macrophage scavenger receptor types I and II (Mus musculus); assay: Activity against acetyl-LDLbinding to scavenger receptor as percent inhibition of incorporation of DiI-acetyl-LDL into mouse peritoneal macrophages at 10 uM
[4] = molecular target: T1, Macrophage scavenger receptor types I and II (Mus musculus); assay: Inhibitory activity against [125I]acetyl-LDL binding to mouse peritoneal macrophage scavenger receptor at 10 uM
[5] = molecular target: T1, Macrophage scavenger receptor types I and II (Mus musculus); assay: Inhibitory activity against [125I]acetyl-LDL binding to mouse peritoneal macrophage scavenger receptor at 30 uM
[6] = molecular target: T1, Macrophage scavenger receptor types I and II (Mus musculus); assay: Inhibitory activity against [125I]-acetyl-LDL binding to mouse peritoneal macrophage scavenger receptor at 100 uM
[7] = molecular target: T2, Macrophage scavenger receptor types I and II (Mus musculus, UniProt P30204); assay: Inhibitory activity against [125I]acetyl-LDL binding to mouse peritoneal macrophage scavenger receptor
T2 sequence (P30204 whole entry): T1 sequence (whole entry)

Compound: CCCCCCCCCCCCCCCCCC(=O)Nc1ccc(C(=O)O)c(NC(=O)CCCCCCCCCCCCCCCCC)c1
inhibition [1]: < 10%

Compound: CCCCCCCCCCCCCCCCCC(=O)N1C[C@H](OS(=O)(=O)O)C[C@H]1C(=O)NCCCCCCCCCCCCCC
inhibition [1]: 23.7%

Compound: CCCCCCCCCCCCCCCCCC(=O)NC(COS(=O)(=O)O)C(=O)NCCCCCCCCCCCCCC (stereo not drawn)
inhibition [3]: 20.5% | inhibition [1]: 61.4% | inhibition [2]: 43.8% | inhibition [4]: 6.6% | inhibition [5]: 41.8% | inhibition [6]: 81.1%

Compound: CCCCCCCCCCCCCCCCCC(=O)Nc1cc(NC(=O)CCCCCCCCCCCCCCCCC)cc(S(=O)(=O)O)c1
inhibition [3]: 18.5% | inhibition [1]: 71.2% | inhibition [2]: 46.2%

Compound: CCCCCCCCCCCCCCCCCC(=O)Nc1ccc(COS(=O)(=O)O)cc1NC(=O)CCCCCCCCCCCCCCCC
inhibition [1]: < 10%

The next lines start with the values.

inhibition [1]: 32.1%
Compound: CCCCCCCCCCCCCCCCCC(=O)Nc1ccc(NC(=O)CCCCCCCCCCCCCCCCC)c(S(=O)(=O)O)c1

inhibition [1]: 85.7% | inhibition [2]: 48%
Compound: CCCCCCCCCCCCCCCCCCCCCC(=O)Nc1ccc(S(=O)(=O)O)c(NC(=O)CCCCCCCCCCCCCCCCCCCCC)c1

inhibition [1]: 66.6% | inhibition [2]: 48%
Compound: CCCCCCCCCCCCCC(=O)Nc1ccc(S(=O)(=O)O)c(NC(=O)CCCCCCCCCCCCC)c1

inhibition [1]: < 10%
Compound: CCCCCCCCCC(=O)Nc1ccc(S(=O)(=O)O)c(NC(=O)CCCCCCCCC)c1

inhibition [1]: < 10%
Compound: CCCCCCCCCCCCCCCCCC(=O)Nc1ccc(S(=O)(=O)O)cc1

IC50 [7]: 2000 nM | inhibition [3]: 57% | inhibition [1]: 84.6% | inhibition [2]: 72.5%
Compound: CCCCCCCCCCCCCCCCCC(=O)Nc1ccc(S(=O)(=O)O)c(NC(=O)CCCCCCCCCCCCCCCCC)c1
